From patent US11000033B2, “Ketone or oxime compound, and herbicide” (NISSAN CHEMICAL CORPORATION, priority 2014, dated 2021)

Assays:
Type in all cases: in vivo
Abutilon theophrasti = test: Test Example 5: herbicidal effect by foliage application, plastic box (symbol M); settings: 320 g/ha, 3 weeks after application
How it was run: (§1)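 After sowing into sterilized diluvial soil and growing two weeks under glass at 25° C. to 30° C., seedlings receive a uniform foliar spray of diluted emulsion. Damage is judged visually three weeks on.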

[1] = system: Echinochloa oryzacola Vasing.; test: Test Example 1: herbicidal activity, application before weed generation in submerged conditions (symbol A); settings: application herbicide amount 320 g/ha
How it was run: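 Flooded alluvial soil (4 cm water) was mixed-sown with the three weed species, and 2.5-leaf rice seedlings were transplanted. On sowing day, a water-diluted emulsion at a predetermined rate was applied to the water surface. After 3 weeks in a 25–30 °C greenhouse, effect was scored 0–5.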

Lolium multiflorum Lam. [2] = test: Test Example 5: herbicidal effect by foliage application, plastic box (symbol K); settings: 320 g/ha, 3 weeks after application
How it was run: as §1

rapeseed = test: Test Example 4: effect on crop by soil treatment (symbol g); settings: for g (rapeseed) effect on crop grade: application herbicide amount 320 g/ha
How it was run: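 The test used sterilized diluvial soil. Seed was set down in spots and overlaid with about 1.5 cm of soil before growth in a greenhouse kept at 25° C. to 30° C.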

Amaranthus retroflexus = test: Test Example 5: herbicidal effect by foliage application, plastic box (symbol N); settings: 320 g/ha, 3 weeks after application
How it was run: as §1

Lolium multiflorum Lam. [3] = test: Test Example 4: herbicidal effect by soil treatment (symbol K); settings: for K (Lolium multiflorum Lam.) herbicidal effect grade: application herbicide amount 320 g/ha
How it was run: (§2)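 Seeds were sown in sterilized diluvial soil, covered with about 1.5 cm of soil, and the soil surface was sprayed with a water-diluted emulsion of the compound at a predetermined rate. Plants grew in a greenhouse at 25° C. to 30° C.; effects were scored visually 3 weeks after application.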

Setaria viridis = test: Test Example 5: herbicidal effect by foliage application, plastic box (symbol G); settings: 320 g/ha, 3 weeks after application
How it was run: as §1

Veronica persica [4] = test: Test Example 4: herbicidal effect by soil treatment (symbol R); settings: for R (Veronica persica) herbicidal effect grade: application herbicide amount 320 g/ha
How it was run: as §2

[5] = system: Echinochloa oryzacola Vasing.; test: Test Example 2: herbicidal activity, application during weed generation in submerged conditions (symbol A); settings: Table 23; application herbicide amount 320 g/ha; grade 0-5 by criteria of Test Example 1
How it was run: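 Submerged alluvial soil (4 cm) sown with mixed seed; greenhouse 25–30° C. 1–2 leaf: diluted emulsion onto water surface, preset dose. Visual score, 3 wk.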

Veronica persica [6] = test: Test Example 5: herbicidal effect by foliage application, plastic box (symbol R); settings: 320 g/ha, 3 weeks after application
How it was run: as §1

Alopecurus myosuroides = test: Test Example 4: herbicidal effect by soil treatment (symbol J); settings: for J (Alopecurus myosuroides) herbicidal effect grade: application herbicide amount 320 g/ha
How it was run: as §2

Stellaria media = test: Test Example 5: herbicidal effect by foliage application, plastic box (symbol P); settings: 320 g/ha, 3 weeks after application
How it was run: as §1

rice plant = test: Test Example 5: effect on crop by foliage application, plastic box (symbol b); settings: 320 g/ha, 3 weeks after application
How it was run: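 In a plastic box 7 cm deep filled with sterilized diluvial soil, seeds of crops and weeds such as Digitaria ciliaris, Avena fatua and Amaranthus retroflexus are sown in spots and covered with about 1.5 cm of soil before greenhouse growth at 25–30° C.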

[7] = system: Echinochloa crus-galli var. crus-galli; test: Test Example 4: herbicidal effect by soil treatment (symbol H); settings: for H (Echinochloa crus-galli var. crus-galli) herbicidal effect grade: application herbicide amount 320 g/ha
How it was run: as §2

corn = test: Test Example 4: effect on crop by soil treatment (symbol c); settings: for c (corn) effect on crop grade: application herbicide amount 320 g/ha
How it was run: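 Steps: fill box with sterilized diluvial soil; sow seed spot-like; cover with ~1.5 cm soil; grow in greenhouse (25° C. to 30° C.).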

Avena fatua = test: Test Example 4: herbicidal effect by soil treatment (symbol I); settings: for I (Avena fatua) herbicidal effect grade: application herbicide amount 320 g/ha
How it was run: as §2

Structure (SMILES)	M: Abutilon theophrasti, herbicidal effect grade (Abutilon theophrasti)	Herbicidal effect grade, A: Echinochloa oryzacola Vasing. [1]	K: Lolium multiflorum Lam., herbicidal effect grade (Lolium multiflorum Lam. [2])	g (rapeseed) effect on crop grade (rapeseed)	N: Amaranthus retroflexus, herbicidal effect grade (Amaranthus retroflexus)	K (Lolium multiflorum Lam.) herbicidal effect grade (Lolium multiflorum Lam. [3])	G: Setaria viridis, herbicidal effect grade (Setaria viridis)	R (Veronica persica) herbicidal effect grade (Veronica persica [4])	Herbicidal effect grade, A: Echinochloa oryzacola Vasing. [5]	R: Veronica persica, herbicidal effect grade (Veronica persica [6])	J (Alopecurus myosuroides) herbicidal effect grade (Alopecurus myosuroides)	P: Stellaria media, herbicidal effect grade (Stellaria media)	b: directly sowed rice plant, effect on crop grade (rice plant)	H (Echinochloa crus-galli var. crus-galli) herbicidal effect grade [7]	c (corn) effect on crop grade (corn)	I (Avena fatua) herbicidal effect grade (Avena fatua)	also measured
CON=C(C)CC1CC(OC(=O)COc2cccc(OC)c2)=C(c2c(C)cc(C)cc2C)C1=O (stereo not shown) [1-068]	5 (Herbicidal ratio of 90% or more (almost completely withered))	5 (Herbicidal ratio of 90% or more (almost completely withered))	5 (Herbicidal ratio of 90% or more (almost completely withered))	4 (Herbicidal ratio of 70% or higher and lower than 90%)	4 (Herbicidal ratio of 70% or higher and lower than 90%)	5 (Herbicidal ratio of 90% or more (almost completely withered))	5 (Herbicidal ratio of 90% or more (almost completely withered))	0 (Herbicidal ratio of 5% or lower (almost no effect))	5 (Herbicidal ratio of 90% or more (almost completely withered))	3 (Herbicidal ratio of 40% or higher and lower than 70%)	5 (Herbicidal ratio of 90% or more (almost completely withered))	3 (Herbicidal ratio of 40% or higher and lower than 70%)	5 (Herbicidal ratio of 90% or more (almost completely withered))	5 (Herbicidal ratio of 90% or more (almost completely withered))	5 (Herbicidal ratio of 90% or more (almost completely withered))	3 (Herbicidal ratio of 40% or higher and lower than 70%)	–
CON=C(C)CC1CC(OC(=O)COc2ccc(C(C)=O)cc2)=C(c2c(C)cc(C)cc2C)C1=O (stereo not shown) [1-080]	–	5 (Herbicidal ratio of 90% or more (almost completely withered))	–	–	–	–	–	–	4 (Herbicidal ratio of 70% or higher and lower than 90%)	–	–	–	–	–	–	–	M: Abutilon theophrasti, herbicidal effect (criteria 0-5) (Abutilon theophrasti): 4 (Herbicidal ratio of 70% or higher and lower than 90%); K: Lolium multiflorum Lam., herbicidal effect (criteria 0-5) (Lolium multiflorum Lam. [2]): 5 (Herbicidal ratio of 90% or more (almost completely withered)); g: rapeseed, effect grade on crop (rapeseed; 320 g/ha): 4 (Herbicidal ratio of 70% or higher and lower than 90%); N: Amaranthus retroflexus, herbicidal effect (criteria 0-5) (Amaranthus retroflexus): 0 (Herbicidal ratio of 5% or lower (almost no effect)); K: Lolium multiflorum Lam., herbicidal effect grade (Lolium multiflorum Lam. [3]; 320 g/ha): 5 (Herbicidal ratio of 90% or more (almost completely withered)); G: Setaria viridis, herbicidal effect (criteria 0-5) (Setaria viridis): 5 (Herbicidal ratio of 90% or more (almost completely withered)); R: Veronica persica, herbicidal effect grade (Veronica persica [4]; 320 g/ha): 0 (Herbicidal ratio of 5% or lower (almost no effect)); R: Veronica persica, herbicidal effect (criteria 0-5) (Veronica persica [6]): 1 (Herbicidal ratio of 5% or higher and lower than 20%); J: Alopecurus myosuroides, herbicidal effect grade (Alopecurus myosuroides; 320 g/ha): 5 (Herbicidal ratio of 90% or more (almost completely withered)); P: Stellaria media, herbicidal effect (criteria 0-5) (Stellaria media): 0 (Herbicidal ratio of 5% or lower (almost no effect)); b: directly sowed rice plant, effect on crop (criteria 0-5) (rice plant): 5 (Herbicidal ratio of 90% or more (almost completely withered)); H: Echinochloa crus-galli var. crus-galli, herbicidal effect grade ([7]; 320 g/ha): 5 (Herbicidal ratio of 90% or more (almost completely withered)); c: corn, effect grade on crop (corn; 320 g/ha): 4 (Herbicidal ratio of 70% or higher and lower than 90%); I: Avena fatua, herbicidal effect grade (Avena fatua; 320 g/ha): 3 (Herbicidal ratio of 40% or higher and lower than 70%)
CON=C(C)CC1CC(OC(=O)C(C)Oc2ccccc2)=C(c2c(C)cc(C)cc2C)C1=O (stereo not shown) [1-060]	3 (Herbicidal ratio of 40% or higher and lower than 70%)	5 (Herbicidal ratio of 90% or more (almost completely withered))	5 (Herbicidal ratio of 90% or more (almost completely withered))	3 (Herbicidal ratio of 40% or higher and lower than 70%)	0 (Herbicidal ratio of 5% or lower (almost no effect))	5 (Herbicidal ratio of 90% or more (almost completely withered))	5 (Herbicidal ratio of 90% or more (almost completely withered))	0 (Herbicidal ratio of 5% or lower (almost no effect))	5 (Herbicidal ratio of 90% or more (almost completely withered))	3 (Herbicidal ratio of 40% or higher and lower than 70%)	5 (Herbicidal ratio of 90% or more (almost completely withered))	3 (Herbicidal ratio of 40% or higher and lower than 70%)	5 (Herbicidal ratio of 90% or more (almost completely withered))	5 (Herbicidal ratio of 90% or more (almost completely withered))	4 (Herbicidal ratio of 70% or higher and lower than 90%)	3 (Herbicidal ratio of 40% or higher and lower than 70%)	–
CC(CC1CC(O)=C(c2c(C)cc(C)cc2C)C1=O)=NOC(C)(C)C (stereo not shown) [1-053]	0 (Herbicidal ratio of 5% or lower (almost no effect))	5 (Herbicidal ratio of 90% or more (almost completely withered))	5 (Herbicidal ratio of 90% or more (almost completely withered))	3 (Herbicidal ratio of 40% or higher and lower than 70%)	0 (Herbicidal ratio of 5% or lower (almost no effect))	5 (Herbicidal ratio of 90% or more (almost completely withered))	3 (Herbicidal ratio of 40% or higher and lower than 70%)	0 (Herbicidal ratio of 5% or lower (almost no effect))	4 (Herbicidal ratio of 70% or higher and lower than 90%)	2 (Herbicidal ratio of 20% or higher and lower than 40%)	3 (Herbicidal ratio of 40% or higher and lower than 70%)	0 (Herbicidal ratio of 5% or lower (almost no effect))	5 (Herbicidal ratio of 90% or more (almost completely withered))	5 (Herbicidal ratio of 90% or more (almost completely withered))	1 (Herbicidal ratio of 5% or higher and lower than 20%)	0 (Herbicidal ratio of 5% or lower (almost no effect))	–
